Measured values taken from patent publication US20230098332A1, “HETEROCYCLIC DERIVATIVES AS TRMP8 ANTAGONISTS” (Givaudan SA, priority 2020, published 2023).
Structures can show the parent of a compound that is named as a salt.

Molecular target: T1, hTRPM8 (Homo sapiens, UniProt Q7Z2W7)
T1 construct: expressed in transfected cells
Experiment: Assay on TRPM8 modulators: calcium imaging (Fluo-4, Flexstation) in HEK293 cell line stably expressing hTRPM8
Format: cell-based
Conditions: TRPM8 agonist activity, calcium influx, HEK293 stably expressing hTRPM8, sigmoidal dose-response fit
Method: A HEK293 cell line stably expressing hTRPM8 was generated according to Klein et al., (Chem. Senses 36: 649-658, 2011) and receptor activation was monitored by calcium imaging in a Flexstation. For Ca-imaging assays of TRPM8 channel activation, cells were seeded on day 0 at a density of 12000 cells per well in Dulbecco's modified Eagle medium (DMEM) containing 9% foetal bovine serum in black, clear bottom 96-well plates that had been coated with 0.001% polyethyleneimine (molecular weight=60 000, Acros Organics). On day 2, agonists were evaluated via calcium imaging using Fluo-4. Briefly, growth medium was discarded, and the cells were incubated in the dark for 1 h at 37° C. in 50 μL loading buffer consisting of 2.7 μM Fluo-4 AM (Invitrogen) and […] probenecid (Sigma-Aldrich) in DMEM (without serum). After incubation, the plates were washed five times with 100 μL of assay buffer (in mM: 130 NaCl, 5 KCl, 10 HEPES, 2 CaCl2, and 10 glucose, pH7.4.) and further incubated in the dark at room temperature for 30 min. The cells were then washed five times with 100 μL assay buffer and then calcium influx to serial dilutions of inventive compounds were measured in a Flexstation 3 (Molecular Devices). Receptor activation was initiated following addition of 20 μl of a 10-fold concentrated ligand stock solution, which is also prepared in assay buffer. Fluorescence was continuously monitored for 15 seconds prior to ligand addition and for 105 seconds after ligand addition, for a total of 120 seconds. Maximal receptor activation in relation to solvent control and relative to 31.6 μM menthol is determined. Data from serial dilutions were processed with a KNIME workflow to fit a sigmoidal dose-response curve and to extrapolate EC50 values.

T1 sequence (Q7Z2W7 whole entry): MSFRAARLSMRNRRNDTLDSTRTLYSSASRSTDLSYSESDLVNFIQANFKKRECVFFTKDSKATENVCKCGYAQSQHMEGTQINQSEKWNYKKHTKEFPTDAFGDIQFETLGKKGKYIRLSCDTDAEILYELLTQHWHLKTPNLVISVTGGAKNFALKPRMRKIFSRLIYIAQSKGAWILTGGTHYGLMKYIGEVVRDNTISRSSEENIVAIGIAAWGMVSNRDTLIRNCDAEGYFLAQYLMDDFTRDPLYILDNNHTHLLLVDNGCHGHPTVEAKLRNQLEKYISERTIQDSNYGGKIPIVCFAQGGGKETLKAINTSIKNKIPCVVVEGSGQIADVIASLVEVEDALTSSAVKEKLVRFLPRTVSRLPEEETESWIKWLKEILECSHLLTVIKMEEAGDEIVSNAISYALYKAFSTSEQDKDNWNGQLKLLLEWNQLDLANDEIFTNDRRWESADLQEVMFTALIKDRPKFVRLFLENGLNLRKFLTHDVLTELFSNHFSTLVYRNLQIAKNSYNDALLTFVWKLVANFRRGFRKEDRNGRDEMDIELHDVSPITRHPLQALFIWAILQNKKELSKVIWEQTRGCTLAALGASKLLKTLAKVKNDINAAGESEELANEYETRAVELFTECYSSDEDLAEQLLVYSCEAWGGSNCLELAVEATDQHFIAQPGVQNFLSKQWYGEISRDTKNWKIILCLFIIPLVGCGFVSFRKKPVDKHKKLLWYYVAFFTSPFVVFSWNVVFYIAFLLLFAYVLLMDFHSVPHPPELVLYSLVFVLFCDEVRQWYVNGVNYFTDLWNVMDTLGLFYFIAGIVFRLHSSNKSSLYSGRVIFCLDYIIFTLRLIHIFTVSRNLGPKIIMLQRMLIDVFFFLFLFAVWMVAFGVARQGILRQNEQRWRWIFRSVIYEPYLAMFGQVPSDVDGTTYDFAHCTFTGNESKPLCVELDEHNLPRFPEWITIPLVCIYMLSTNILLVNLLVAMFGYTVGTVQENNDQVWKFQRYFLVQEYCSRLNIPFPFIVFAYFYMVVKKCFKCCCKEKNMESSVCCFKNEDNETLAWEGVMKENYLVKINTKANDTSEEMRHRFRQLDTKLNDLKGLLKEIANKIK

SMILES	EC50
Cc1ccc(OCCN2CCNCC2)c(Cc2ccccc2)c1 [compound 88, 1-(2-(2-benzyl-4-methylphenoxy)ethyl)piperazine]	1000 to 35000 nM
Cc1ccc(OCCN2CCC(O)CC2)c(Cc2ccccc2)c1 [compound 89, 1-(2-(2-benzyl-4-methylphenoxy)ethyl)piperidin-4-ol]	1000 to 35000 nM
Cc1ccc(OC(C)CN2CCN(C)CC2)c(Cc2ccccc2)c1 (centres unmarked) [compound 91, 1-(2-(2-benzyl-4-methylphenoxy)propyl)-4-methylpiperazine hydrochloride]	300 to 1000 nM
Cc1cccc(Cc2ccccc2)c1OCCN1CCN(C)CC1 [compound 92, 1-(2-(2-benzyl-6-methylphenoxy)ethyl)-4-methylpiperazine]	1000 to 35000 nM
CN1CCN(CCOc2ccccc2Cc2ccccc2)CC1 [compound 93, 1-(2-(2-benzylphenoxy)ethyl)-4-methylpiperazine hydrochloride]	1000 to 35000 nM
Cc1ccc(OCCN2CCN(C)CC2)c(CC(C)C)c1 [compound 94, 1-(2-(2-isobutyl-4-methylphenoxy)ethyl)-4-methylpiperazine]	1000 to 35000 nM
Cc1ccc(CCN2CCN(C)CC2)c(Cc2ccccc2)c1 [compound 96, 1-(2-benzyl-4-methylphenethyl)-4-methylpiperazine]	1000 to 35000 nM
Cc1ccc(CC(O)CN2CCN(C)CC2)c(Cc2ccccc2)c1 (centres unmarked) [compound 97, 1-(2-benzyl-4-methylphenyl)-3-(4-methylpiperazin-1-yl)propan-2-ol]	300 to 1000 nM
Cc1ccc(CC(=O)CN2CCN(C)CC2)c(Cc2ccccc2)c1 [compound 98, 1-(2-benzyl-4-methylphenyl)-3-(4-methylpiperazin-1-yl)propan-2-one]	1000 to 35000 nM
Cc1ccc(OCCCN2CCN(C)CC2)c(Cc2ccccc2)c1 [compound 99, 1-(3-(2-benzyl-4-methylphenoxy)propyl)-4-methylpiperazine hydrochloride]	1000 to 35000 nM
Cc1ccc(OCCN2CCN(C)CC2)c(C(C)c2ccccc2)c1 (centres unmarked) [compound 101, 1-methyl-4-(2-(4-methyl-2-(1-phenylethyl)phenoxy)ethyl)piperazine]	300 to 1000 nM
C=C(c1ccccc1)c1cc(C)ccc1OCCN1CCN(C)CC1 [compound 102, 1-methyl-4-(2-(4-methyl-2-(1-phenylvinyl)phenoxy)ethyl)piperazine]	300 to 1000 nM
Cc1ccc(OCCN2CCN(C)CC2)c(Cc2ccccc2C)c1 [compound 103, 1-methyl-4-(2-(4-methyl-2-(2-methylbenzyl)phenoxy)ethyl)piperazine]	300 to 1000 nM
Cc1cccc(Cc2cc(C)ccc2OCCN2CCN(C)CC2)c1 [compound 104, 1-methyl-4-(2-(4-methyl-2-(3-methylbenzyl)phenoxy)ethyl)piperazine]	1000 to 35000 nM
Cc1ccc(OCCN2CCN(C)CC2)c(Cc2cccs2)c1 [compound 105, 1-methyl-4-(2-(4-methyl-2-(thiophen-2-ylmethyl)phenoxy)ethyl)piperazine hydrochloride]	300 to 1000 nM
Cc1cc(C)c(OC(C)CO)c(Cc2ccccc2C#N)c1 (centres unmarked) [compound 106, 2-(2-((1-hydroxypropan-2-yl)oxy)-3,5-dimethylbenzyl)benzonitrile]	300 to 1000 nM
Cc1ccc(CC(O)CN2CCOCC2)c(Oc2ccccc2C#N)c1 (centres unmarked) [compound 107, 2-(2-(2-hydroxy-3-morpholinopropyl)-5-methylphenoxy)benzonitrile]	50 to 300 nM
Cc1cc(C)c(OCCN2CCOCC2)c(Cc2ccccc2CC#N)c1 [compound 108, 2-(2-(3,5-dimethyl-2-(2-morpholinoethoxy)benzyl)phenyl)acetonitrile]	50 to 300 nM
Cc1cc(C)c(OCCN2CCN(C)CC2)cc1Cc1ccccc1C#N [compound 109, 2-(2,4-dimethyl-5-(2-(4-methylpiperazin-1-yl)ethoxy)benzyl)benzonitrile]	1000 to 35000 nM
Cc1ccc(NCCN2CCOCC2)c(Cc2c(F)cccc2F)c1 [compound 110, 2-(2,6-difluorobenzyl)-4-methyl-N-(2-morpholinoethyl)aniline]	300 to 1000 nM
Cc1cc(C)c(N(C)CCN2CCOCC2)c(Cc2c(F)cccc2F)c1 [compound 111, 2-(2,6-difluorobenzyl)-N,4,6-trimethyl-N-(2-morpholinoethyl)aniline]	300 to 1000 nM
Cc1ccc(N(C)CCN2CCOCC2)c(Cc2c(F)cccc2F)c1 [compound 112, 2-(2,6-difluorobenzyl)-N,4-dimethyl-N-(2-morpholinoethyl)aniline]	< 50 nM

SMILES	EC50
Cc1cc(C)c(N(C)CCN2CCOCC2)c(Cc2ccccc2F)c1 [compound 113, 2-(2-fluorobenzyl)-N,4,6-trimethyl-N-(2-morpholinoethyl)aniline]	300 to 1000 nM
Cc1ccc(N(C)CCN2CCOCC2)c(Cc2ccccc2F)c1 [compound 114, 2-(2-fluorobenzyl)-N,4-dimethyl-N-(2-morpholinoethyl)aniline]	50 to 300 nM
Cc1cc(C)c(OC(C)CN2CCN(C)CC2)c(Cc2ccccc2C#N)c1 (centres unmarked) [compound 115, 2-(3,5-dimethyl-2-((1-(4-methylpiperazin-1-yl)propan-2-yl)oxy)benzyl)benzonitrile]	50 to 300 nM
Cc1cc(C)c(OC(C)CN2CCN(C)CC2)c(Cc2ccccc2C#N)c1 (centres unmarked) [compound 116, 2-(3,5-dimethyl-2-((1-(4-methylpiperazin-1-yl)propan-2-yl)oxy)benzyl)benzonitrile hydrochloride]	50 to 300 nM
Cc1cc(C)c(OCCN2CCN(C)CC2)c(Cc2ccccc2C#N)c1 [compound 117, 2-(3,5-dimethyl-2-(2-(4-methylpiperazin-1-yl)ethoxy)benzyl)benzonitrile]	50 to 300 nM
Cc1cc(C)c(OCCN2CCOCC2)c(Cc2c(F)cccc2C#N)c1 [compound 120, 2-(3,5-dimethyl-2-(2-morpholinoethoxy)benzyl)-3-fluorobenzonitrile]	50 to 300 nM
Cc1cc(C)c(OCCN2CCOCC2)c(Cc2ccccc2N)c1 [compound 121, 2-(3,5-dimethyl-2-(2-morpholinoethoxy)benzyl)aniline]	1000 to 35000 nM
Cc1cc(C)c(OCCCN2CCOCC2)c(Cc2ccccc2C#N)c1 [compound 124, 2-(3,5-dimethyl-2-(3-morpholinopropoxy)benzyl)benzonitrile]	50 to 300 nM
Cc1cc(C)c(N(C)CCN2CCOCC2)c(Cc2ccccc2C#N)c1 [compound 126, 2-(3,5-dimethyl-2-(methyl(2-morpholinoethyl)amino)benzyl)benzonitrile]	< 50 nM
Cc1ccc(Oc2ccccc2C#N)c(CCCN2CCN(C)CC2)c1 [compound 127, 2-(4-methyl-2-(3-(4-methylpiperazin-1-yl)propyl)phenoxy)benzonitrile]	1000 to 35000 nM
Cc1ccc(OCCC2CCN(C)CC2)c(Cc2ccccc2C#N)c1 [compound 128, 2-(5-methyl-2-(2-(1-methylpiperidin-4-yl)ethoxy)benzyl)benzonitrile]	1000 to 35000 nM
Cc1ccc(OCCN2CCN(C)CC2)c(Cc2ccccc2C#N)c1 [compound 129, 2-(5-methyl-2-(2-(4-methylpiperazin-1-yl)ethoxy)benzyl)benzonitrile]	50 to 300 nM
Cc1ccc(OCCN2CCOCC2)c(CC2CCCCC2=O)c1 (centres unmarked) [compound 131, 2-(5-methyl-2-(2-morpholinoethoxy)benzyl)cyclohexan-1-one]	1000 to 35000 nM
Cc1ccc(OCC(C)N2CCOCC2)c(Cc2ccccc2C#N)c1 (centres unmarked) [compound 132, 2-(5-methyl-2-(2-morpholinopropoxy)benzyl)benzonitrile]	300 to 1000 nM
Cc1ccc(CCCN2CCN(C)CC2)c(Oc2ccccc2C#N)c1 [compound 133, 2-(5-methyl-2-(3-(4-methylpiperazin-1-yl)propyl)phenoxy)benzonitrile]	50 to 300 nM
Cc1ccc(NCCN2CCN(C)CC2)c(Cc2ccccc2)c1 [compound 135, 2-benzyl-4-methyl-N-(2-(4-methylpiperazin-1-yl)ethyl)aniline]	1000 to 35000 nM
Cc1ccc(OC(=O)CN2CCN(C)CC2)c(Cc2ccccc2)c1 [compound 136, 2-benzyl-4-methylphenyl 2-(4-methylpiperazin-1-yl)acetate]	1000 to 35000 nM
Cc1ccc(N(C)CCN2CCOCC2)c(Cc2ccccc2)c1 [compound 138, 2-benzyl-N,4-dimethyl-N-(2-morpholinoethyl)aniline]	50 to 300 nM
Cc1cc(C)c(OCCN2CCN(C)CC2)c(Cc2cccc(C#N)c2)c1 [compound 139, 3-(3,5-dimethyl-2-(2-(4-methylpiperazin-1-yl)ethoxy)benzyl)benzonitrile dihydrochloride]	1000 to 35000 nM
Cc1cc(C)c(OCCN2CCOCC2)c(Cc2c(Br)cccc2C#N)c1 [compound 141, 3-bromo-2-(3,5-dimethyl-2-(2-morpholinoethoxy)benzyl)benzonitrile]	300 to 1000 nM
Cc1cc(C)c(OCCN2CCOCC2)c(Cc2c(Cl)cccc2C#N)c1 [compound 142, 3-chloro-2-(3,5-dimethyl-2-(2-morpholinoethoxy)benzyl)benzonitrile]	300 to 1000 nM
Cc1cc(C)c(OCC(C)N2CCOCC2)c(Cc2c(F)cccc2F)c1 (centres unmarked) [compound 143, 4-(1-(2-(2,6-difluorobenzyl)-4,6-dimethylphenoxy)propan-2-yl)morpholine]	50 to 300 nM
